The source of these data is US12678509B2, “Inhibitor of apoptosis (IAP) protein antagonists” (Sanford Burnham Prebys Medical Discovery Institute, priority 2019, dated 2026).

One data set deals with NB-4. The data set can be described thus: Cell viability (CellTiter-Glo). It counts as cell-based, Human. Conditions: Homo sapiens, NB-4, 72 h, read-out: NB-4 Viability 72 h IC50. As for the experimental part: The compound 18a was tested in 16 different cell lines. For 6-day compound treatment 1700 cells per well were plated in a 384-well plate (Corning #781098) and incubated overnight at 37° C./5% CO2. […] Afterwards, 20 μL CellTiter-Glo reagent (Promega, #G7570) was added to each well outside of the incubator and the plates were read for luminescence on a Spark® multimode microplate reader (Tecan). Data was fit in GraphPad Prism 8 to a nonlinear regression curve to determine the IC50 of the compounds. […]
A general note: In ATP-based viability assays light output follows the ATP content of the culture.

A further data set has as its system MOLM 13. The data set can be described thus: Cell viability (CellTiter-Glo), 6-day compound treatment. It counts as cell-based, Human. Conditions: Homo sapiens, MOLM-13, 144 h, read-out: MOLM 13 Viability 6 d IC50. As for the experimental part:
The compound 18a was tested in 16 different cell lines. For 6-day compound treatment 1700 cells per well were plated in a 384-well plate (Corning #781098) and incubated overnight at 37° C./5% CO2. The following day, compounds in 10-fold dilutions were added to the plates and the plates were incubated for 6 days. Afterwards, 20 μL CellTiter-Glo reagent (Promega, #G7570) was added to each well outside of the incubator and the plates were read for luminescence on a Spark® multimode microplate reader (Tecan). Data was fit in GraphPad Prism 8 to a nonlinear regression curve to determine the IC50 of the compounds. […]

The next data set deals with SKOV-3. Put plainly: Cell viability (CellTiter-Glo), 48 hrs. Format: cell-based. Particulars: Homo sapiens, SK-OV-3, 48 h, read-out: SKOV-3 Viability 48 h IC50. The procedure:
One thousand seven hundred cells per well were plated in a 384 well plate and incubated overnight at 37° C./5% CO2. The following day, compounds in 10-fold dilutions were added to the plates and the plates returned to the incubator for 48 hrs. 48 hrs later, plates were removed to the bench and 20 μL CellTiter-Glo reagent was added to each well and the plates were read for luminescence on a Spark® multimode microplate reader (Tecan). Data were fit using PRISM to a nonlinear regression curve to determine the IC50 of the compounds.

Another data set concerns the target BIR3 domain of XIAP (Homo sapiens, UniProt P98170). The data set can be described thus: Fluorescence polarization assay. Format: binding. Particulars: SMAC-FITC probe, Ki calculated from IC50. As for the experimental part: (§1) Binding of compounds to ML-IAP and BIR3 domain of cIAP1, cIAP2 and XIAP was determined by fluorescence polarization. Assay buffer was 100 mM KH2PO4 at pH 7.5, 50 μM ZnSO4, 1 mM TCEP (Tris(2-carboxyethyl)phosphine hydrochloride) and 50 nM SMAC-FITC probe (AbuRPF-K(5-Fam)-NH2) as described by Z. Nikolovska-Coleska et al.^9. cIAP1 and XIAP were present at 800 nM while cIAP2 and MLIAP were present at 1.5 μM. Compounds in 3-fold dilutions were added to the plates ranging from 30 μM to 1.5 nM. Assays were run in 384-well black plates read (Greiner Bio-One #784076) in an Analyst in fluorescence polarization mode with excitation at 485 nm and emission at 535 nm. Data was fit to a nonlinear regression curve in GraphPad Prism 8 to determine the IC50 values of the compounds. Ki's were then calculated from the IC50 values using equation: Ki=[I]50/([L]50/Kd+[P]0/Kd+1) formulated by Z. Nikolovska-Coleska et al.

Another data set has as its target BIR3 domain of cIAP1 (Homo sapiens, UniProt Q13490). The data set can be described thus: Fluorescence polarization assay. It counts as binding. Particulars: SMAC-FITC probe, Ki calculated from IC50. The procedure: as §1
Another data set has as its target BIR3 domain of cIAP2 (Homo sapiens, UniProt Q13489). Put plainly: Fluorescence polarization assay. Particulars: SMAC-FITC probe, Ki calculated from IC50. It counts as binding. As for the experimental part: as §1
In another data set the target is T1, ML-IAP (Homo sapiens, UniProt Q96CA5).
T1 sequence (Q96CA5 1-298): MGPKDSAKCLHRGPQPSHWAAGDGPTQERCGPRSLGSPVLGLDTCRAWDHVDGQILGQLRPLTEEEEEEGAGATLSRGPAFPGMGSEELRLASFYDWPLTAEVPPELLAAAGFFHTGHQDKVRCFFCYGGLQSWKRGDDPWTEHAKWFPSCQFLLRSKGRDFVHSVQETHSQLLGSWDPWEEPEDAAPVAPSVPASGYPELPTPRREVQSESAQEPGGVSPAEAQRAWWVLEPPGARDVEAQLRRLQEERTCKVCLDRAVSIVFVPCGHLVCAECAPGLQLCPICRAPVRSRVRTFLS
The data set can be described thus: Fluorescence polarization assay. It counts as binding. Particulars: SMAC-FITC probe, Ki calculated from IC50. The procedure:
as §1

The subject of data set [1] is latently infected cell line Jurkat 2D10. Put plainly: HIV Jurkat 2D10 cells GFP+ assay (reversal of HIV latency). It counts as cell-based. Particulars: Homo sapiens, Jurkat, 48 h, read-out: Jurkat 2D10 GFP+ EC50. The procedure: Several compounds (Table 5) were tested for their efficacy in the reversal of HIV latency in the latently infected cell line Jurkat 2D10. Jurkat 2D10 cells were treated with different doses of the compounds, or one of the following compounds: BV-6, SM-164, Birinapant, LCL-161, GDC-0152, AT-406 for 48 hours. Reversal of HW latency was evaluated by analyzing GFP expression using flow cytometry. Induction of GFP expression was compared to baseline GFP levels detected in the absence of treatment.

A short description of data set [2]: Pharmacokinetic study in mice, snapshot PK. It counts as in vivo. Conditions: female, C57BL/6J, mouse, plasma, ip, one hour after i.p. injection of 10 mg/kg. The procedure: All animal procedures were approved by the Sanford Burnham Prebys Medical Discovery Institute Institutional Animal Care and Use Committee and were performed according to the NIH guidelines for the Care and Use of Laboratory Animals. Adult female C57BL/6J were purchased from JAX laboratories and housed with free access to food and water on a 12 h light/dark cycle. Compounds were formulated in 5% DMSO, 10% Tween-80, and 85% dH2O and injected intraperitoneally (i.p.) into mice at doses of 10 mg/kg. For snapshot PK analysis, blood samples were collected retro-orbitally one hour after injection and for the time course PK study, blood samples were collected at 15 min, 30 min, 1 h, 2 h, 4 h, 6 h, 24 h time points. For the blood samples plasma was separated by centrifugation. Plasma samples were extracted with acetonitrile:water 4:1 with 0.1% formic acid containing indometacin as an internal standard. Samples were centrifuged and supernatants were diluted with acetonitrile:water and analyzed via LC-MS/MS on a Shimadzu Nexera X2 HPLC coupled to an AB Sciex 6500 QTRAP.
Plasma exposure of selected compounds at 1 h compared.
Plasma levels of parent compound determined one hour after i.p. injection of 10 mg/kg

For a further data set, the system named is AML-SH-065. The data set can be described thus: Cell viability in patient derived AML samples (CellTiterGlo, 72 h). It counts as cell-based, human. The procedure: (§2) Patient AML samples were gathered (under IRB 13-6180) from Scripps MD Anderson, La Jolla, CA Fresh blood samples were subjected to gradient density centrifugation with Ficoll-Paque™ PLUS (17-1440-02, GE Healthcare) and peripheral blood mononuclear cells purified as per manufacturer's protocol.
(§3) 75 nL of 1000× serially diluted IAP inhibitors were spotted in triplicate onto 384-well tissue culture treated plates (Greiner) using a Labcyte Echo acoustic dispensing device. Patient-derived AML cells were maintained in mTeSR1^+1× supplements (Stemcell Technologies) and penicillin/streptomycin/L-glutamine (Omega Scientific Inc.) and Fungizone (HyClone). 25 μL of cell dilution were plated into 384-well plate containing the drugs and incubated for 72 h. Cell viability was assessed by adding 25 μL CellTiterGlo (Promega Corp.) on a Synergy 2 plate reader with Gen5 software (Biotek). % viability was calculated by normalizing luminescence to vehicle only controls (DMSO) in Microsoft Excel and plotted using GraphPad Prism 8. The IC50 values were calculated using log(inhibitor) vs. response—Variable slope (four parameters) equation. (FIG. 6)

Another data set has as its system AML-SH-074. Described as above. It counts as cell-based, human. The procedure: as §2, §3
The subject of the next data set is AML-SH-075. Described as above. Format: cell-based, human. As for the experimental part:
as §2, §3

Sequence of BIR3 domain of XIAP (P98170 241-356 limits assumed): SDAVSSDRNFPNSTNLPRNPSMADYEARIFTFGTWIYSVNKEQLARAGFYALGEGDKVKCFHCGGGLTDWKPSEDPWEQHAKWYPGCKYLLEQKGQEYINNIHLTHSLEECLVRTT
Sequence of BIR3 domain of cIAP1 (Q13490 253-363 limits assumed): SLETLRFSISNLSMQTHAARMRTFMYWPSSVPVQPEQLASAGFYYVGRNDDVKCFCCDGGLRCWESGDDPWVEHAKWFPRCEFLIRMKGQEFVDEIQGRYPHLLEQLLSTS
Sequence of BIR3 domain of cIAP2 (Q13489 238-349 limits assumed): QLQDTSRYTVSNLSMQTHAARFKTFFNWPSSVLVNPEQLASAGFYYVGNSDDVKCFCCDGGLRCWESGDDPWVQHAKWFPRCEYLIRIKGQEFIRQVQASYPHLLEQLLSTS

For `CN[C@@H](C)C(=O)N[C@H]1CCS[C@H]2CC(C)(C)[C@@H](C(=O)N[C@H]3c4ccccc4C[C@H]3OCCCCCCO[C@@H]3Cc4ccccc4[C@@H]3NC(=O)[C@H]3N4C(=O)[C@@H](NC(=O)[C@H](C)NC)CCS[C@H]4CC3(C)C)N2C1=O` [Compound 18b, (2S)-1-{[(4S,7S,9aS)-7-({(1S,2R)-2-[(6-{[(1S,2R)-1-({[(4S,7S,9aS)-8,8-Dimethyl-4-{[(2S)-2-(methylammonio)propanoyl]amino}-5-oxooctahydropyrrolo[2,1-b][1,3]thiazepin-7-yl]carbonyl}amino)-2,3-dihydro-1H-inden-2-yl]oxy}hexyl)oxy]-2,3-dihydro-1H-inden-1-yl}carbamoyl)-8,8-dimethyl-5-oxooctahydropyrrolo[2,1-b][1,3]thiazepin-4-yl]amino}-N-methyl-1-oxopropan-2-ammonium dichloride], the IC50 (usually the concentration that gives 50% inhibition) in the data set with NB-4 was below 10 nM; with MOLM 13, 100 to 1000 nM; in the data set with SKOV-3, below 10 nM. For the same compound, the Ki (as a rule, the equilibrium dissociation constant of an inhibitor or competing ligand from its target) at BIR3 domain of XIAP is at most 50 nM; on BIR3 domain of cIAP1, at most 50 nM; on BIR3 domain of cIAP2, 50 to 100 nM; on ML-IAP, 50 to 100 nM. Also, in [1], the EC50 – broadly, the midpoint of the concentration-response curve – is 1 to 10 nM. In addition, in [2], the concentration at 1 h is 714 nM.
On to `CN[C@@H](C)C(=O)N[C@H]1CCS[C@H]2CC(C)(C)[C@@H](C(=O)N[C@H](CCOCC#CC#CCOCC[C@@H](NC(=O)[C@H]3N4C(=O)[C@@H](NC(=O)[C@H](C)NC)CCS[C@H]4CC3(C)C)c3ccccc3)c3ccccc3)N2C1=O` [Compound 18i, (2S)-1-{[(4S,7S,9aS)-74{(1R)-3-[(6-{[(3R)-3-({[(4S,7S,9aS)-8,8-Dimethyl-4-{[(2S)-2-(methylammonio)propanoyl]amino}-5-oxooctahydropyrrolo[2,1-b][1,3]thiazepin-7-yl]carbonyl}amino)-3-phenylpropyl]oxy}hexa-2,4-diyn-1-yl)oxy]-1-phenylpropyl}carbamoyl)-8,8-dimethyl-5-oxooctahydropyrrolo[2,1-b][1,3]thiazepin-4-yl]amino}-N-methyl-1-oxopropan-2-ammonium dichloride], for which the half-maximal inhibitory concentration (IC50) in the data set on NB-4 is below 10 nM; with MOLM 13 it was 100 to 1000 nM; with SKOV-3, below 10 nM. In addition, the Ki is 50 to 100 nM at BIR3 domain of XIAP, at most 50 nM on BIR3 domain of cIAP1, 50 to 100 nM at BIR3 domain of cIAP2 and 50 to 100 nM at ML-IAP. For the same compound, the EC50 in data set [1] was in the range of 10 to 100 nM. For the same compound, the concentration at 1 h in [2] was 1240 nM.
Turning to `CN[C@@H](C)C(=O)N[C@H]1CCS[C@H]2CC3(CC=CC3)[C@@H](C(=O)N[C@H]3c4ccccc4C[C@H]3OCC#CC#CCO[C@@H]3Cc4ccccc4[C@@H]3NC(=O)[C@H]3N4C(=O)[C@@H](NC(=O)[C@H](C)NC)CCS[C@H]4CC34CC=CC4)N2C1=O` [Compound 18o], the IC50 in the data set on MOLM 13 was 10 to 100 nM; in the data set with SKOV-3, below 10 nM. The Ki is at most 50 nM at BIR3 domain of XIAP, at most 50 nM at BIR3 domain of cIAP1, 50 to 100 nM on BIR3 domain of cIAP2 and 100 to 200 nM on ML-IAP. Besides, in data set [1], the EC50 lay within 1 to 10 nM. Besides, in [2], the concentration at 1 h was 5180 nM.
Consider `CN[C@@H](C)C(=O)N[C@H]1CCO[C@H]2CC(C)(C)[C@@H](C(=O)N[C@H]3c4ccccc4C[C@H]3OCC#CC#CCO[C@@H]3Cc4ccccc4[C@@H]3NC(=O)[C@H]3N4C(=O)[C@@H](NC(=O)[C@H](C)NC)CCO[C@H]4CC3(C)C)N2C1=O` [Compound 18q, [(1S)-1-{[(4S,7S,9aS)-7-{[(1S,2R)-2-[(6-{[(1S,2R)-1-[(4S,7S,9aS)-8,8-Dimethyl-4-[(2S)-2-(methylazaniumyl)propanamido]-5-oxo-octahydropyrrolo[2,1-b][1,3]oxazepine-7-amido]-2,3-dihydro-1H-inden-2-yl]oxy}hexa-2,4-diyn-1-yl)oxy]-2,3-dihydro-1H-inden-1-yl]carbamoyl}-8,8-dimethyl-5-oxo-octahydropyrrolo[2,1-b][1,3]oxazepin-4-yl]carbamoyl}ethyl](methyl)azanium dichloride], for which the IC50 is 10 to 100 nM in the data set with MOLM 13; below 10 nM in the data set on SKOV-3; 10 to 100 nM with AML-SH-065 (Homo sapiens, 72 h, read-out: AML-SH-065 IC50); 100 to 1000 nM with AML-SH-074 (Homo sapiens, 72 h, read-out: AML-SH-074 IC50); 10 to 100 nM in the data set with AML-SH-075 (Homo sapiens, 72 h, read-out: AML-SH-075 IC50). Also, the Ki at BIR3 domain of XIAP is at most 50 nM; at BIR3 domain of cIAP1, 50 to 100 nM; on BIR3 domain of cIAP2, 50 to 100 nM; on ML-IAP it was 50 to 100 nM. The “AML-SH-065 Efficacy” value with AML-SH-065 (patient derived AML sample AML-SH-065, 72 h, cell viability at max. concentration) was “I (I < 10%)”. The “AML-SH-074 Efficacy” value in the data set on AML-SH-074 (patient derived AML sample AML-SH-074, 72 h, cell viability at max. concentration) is “I (I < 10%)”. Also, the “AML-SH-075 Efficacy” value in the data set with AML-SH-075 (patient derived AML sample AML-SH-075, 72 h, cell viability at max. concentration) was “I (I < 10%)”. Besides, the EC50 in [1] was 100 to 1000 nM. The compound further had a concentration at 1 h in data set [2] of 1870 nM.
